# Measurements: paper PMC12388506, “Preclinical Evaluation of 2-Aminobenzothiazole Derivatives: In Silico, In Vitro, and Preliminary In Vivo Studies as Diabetic Treatments and Their Complications” (Molecules, 2025)
# Assays:
# [1] = test system: TNF-α; experiment: Ex vivo serum TNF-α quantification; type: in vivo, rat
# Description: (§1) At the end of the study, animals fasted for 12 h and were taken to a humane endpoint, where blood samples were obtained. These were kept at room temperature for 30 min and then centrifuged at 4000 RPM for 15 min at 4 °C. Finally, the serum was used to perform 24-element blood chemistry and quantify Trolox-equivalent TAC [86], TNF-α [87], and IL-6 levels using commercial kits from Merck (Darmstadt, Germany), Sigma-Aldrich (St. Louis, MO, USA), Cat. No. MAK334-1KT, RAB0479-1KT, and RAB0311-1KT, respectively. In addition, insulin was quantified using the Rat Ins1/Insulin ELISA Kit, from Sigma-Aldrich, No. Cat. RAB0904-1KT [89] to determine the HOMA-IR index. All kits were performed according to the manufacturer’s instructions without modifications.
# [2] = ABTS assay
# Description: (§2) All synthesized compounds were evaluated at 30 μM, 50 μM, 70 μM, 90 μM, and 110 μM under two of the most widely used methods in research to directly measure the antioxidant and anti-radical intrinsic capacity, FRAP, and ABTS assay, which were validated by a dose–response curve of 5-ASA as a reference. In the same way, these tests were carried out in triplicate using an assay kit (from Pharmaceutical and Biotechnological Innovation-Services) according to the manufacturer’s instructions.
# [3] = FRAP assay
# Description: as §2
# [4] = molecular target: T1, ALR2 enzyme (Homo sapiens, UniProt P15121); experiment: ALR2 activity assay kit (ab273276), inhibition; type: biochemical; details: Inhibitor concentration;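 further: inhibition calculated from the rate of NADPH cofactor consumption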
# T1 construct: purchased ab273276
# [5] = test system: STZ-HFD-induced T2D Wistar rats; experiment: 24-element blood chemistry in STZ-HFD-induced T2D model; type: in vivo, rat; design: GGT / TBA / AMY / TG / T-CHOL / GLU: unit not given here; details: for ALP / ALT / AST / CK: in U/L (unit assumed); for ALB / GLO / TP: in g/dL (unit assumed); for BUN / CRE / Ca / Mg / P / TBIL / UREA: in mg/dL (unit assumed); for tCO2: in mmol/L (unit assumed); for TP: mean ± SEM, n = 4
# Description: Treatments were administered daily as described above, adjusting the dose according to the weight of the individuals. Fasting glucose levels (6 h fast) were monitored every 7 days until the end of treatments at week 10 (Figure 14). Halfway through the last week of treatment, the OGTT was performed, administering a dose of 1.5 g/Kg of glucose orally and subsequently monitoring capillary blood glucose at 0, 15, 30, 60, 90, and 120 min [62]. In addition, a 24-element blood chemistry was measured in a Celercare V automated dry chemistry analyzer (Tianjin MNCHIP Technologies Co., Ltd., Tianjin, China) at the beginning and end of the model. For this purpose, the blood samples were obtained from the tail of the rat.
# as §1
# [6] = test system: STZ-HFD-induced T2D Wistar rats; experiment: Acute evaluation of blood glucose in STZ-HFD-induced T2D model; type: in vivo, rat; details: 8d 32 mg/Kg oral
# Description: In vivo experiments were conducted in an acute and a subchronic model, where Wistar rats (180–220 g) were used. The study covered a total period of 10 weeks and was carried out under the Mexican Standard, and the “Guide for the Care and Use of Laboratory Animals” of the National Research Council and Health Institutes was followed.
# At first, animals were housed in polypropylene cages under conditions of controlled temperature (20–25 °C), relative humidity (36–60%), and light/dark cycles, with water ad libitum. Before starting the experiment, they were given a one-week acclimatization period to adapt to their new habitat. Once finalized, animals were fed an HFD for 3 weeks to generate insulin resistance.
# After this period, the animals fasted for 12 h and then were administered intraperitoneally with a single dose of 35 mg/Kg of STZ dissolved in a buffer of 0.1 M citrate, pH 4.5 (prepared on the same day of administration). […]
# One week after administration, postprandial blood glucose levels were measured by venipuncture using a glucometer. […]
# Once the experimental groups were formed, a fixed schedule was established for the daily oral administration of the respective treatments. […] On the third day of treatment, postprandial blood glucose was measured with a glucometer Freestyle® (Abbott Diabetes Care, Alameda, CA, USA), extracting a drop of blood from the caudal vein of each rat. […]
compound,measurement,setting,value
"COC(=O)[C@H](Cc1ccccc1)N/C(=N\c1nc2ccccc2s1)SC [8d, Methyl (E)-((benzo[d]thiazol-2-ylimino)(methylthio)methyl)-L-phenylalaninate]",TNF-α,"[1]; Table S11, After 5 weeks of treatment",5417.72 ± 2104.18 pg/mL
same,TNF-α,"[1]; serum, end of treatment, mean ± SEM, n = 4",5417.72 ± 2104.2 pg/mL
same,Percentage reduction of radical cation ABTS,[2]; 30 µM,-4.0%
same,Percentage reduction of radical cation ABTS,[2]; 50 µM,-3.0%
same,Percentage reduction of radical cation ABTS,[2]; 70 µM,-4.2%
same,Percentage reduction of radical cation ABTS,[2]; 90 µM,-3.6%
same,Percentage reduction of radical cation ABTS,[2]; 110 µM,-2.5%
same,Percentage reduction of ferric ion to ferrous ion (FRAP),[3]; 30 µM,12.7%
same,Percentage reduction of ferric ion to ferrous ion (FRAP),[3]; 50 µM,14.1%
same,Percentage reduction of ferric ion to ferrous ion (FRAP),[3]; 70 µM,15.1%
same,Percentage reduction of ferric ion to ferrous ion (FRAP),[3]; 90 µM,16.9%
same,Percentage reduction of ferric ion to ferrous ion (FRAP),[3]; 110 µM,18.4%
same,relative ALR2 inhibition,[4],98.000%
same,triglycerides (TG),[5]; After 5 weeks of treatment,significantly reducing TG
same,A/G,[5]; Final,1.28 ± 0.03
same,AMY,[5]; Final,436.50 ± 29.54
same,AST/ALT,[5]; Final,4.42 ± 0.79
same,BUN/CRE,[5]; Final,28.50 ± 6.00
same,GGT,[5]; Final,0.65 ± 0.18
same,GLU,[5]; Final,172.75 ± 50.56
same,T-CHOL,[5]; Final,90.00 ± 16.06
same,TBA,[5]; Final,54.33 ± 31.99
same,TG,[5]; Final,177.90 ± 82.61
same,ALP,[5]; Final,210.25 ± 109.57
same,ALT,[5]; Final,85.50 ± 27.46
same,AST,[5]; Final,319.75 ± 51.70
same,CK,[5]; Final,> 3000
same,ALB,[5]; Final,4.00 ± 0.16
same,GLO,[5]; Final,3.13 ± 0.13
same,BUN,[5]; Final,17.78 ± 4.29
same,CRE,[5]; Final,0.62 ± 0.03
same,Ca,[5]; Final,9.82 ± 0.48
same,Mg,[5]; Final,2.34 ± 0.09
same,P,[5]; Final,7.89 ± 0.55
same,TBIL,[5]; Final,0.25 ± 0.05
same,UREA,[5]; Final,38.10 ± 9.11
same,tCO2,[5]; Final,18.00 ± 0.82
same,TP,[5]; Final,7.13 ± 0.28
same,A/G,[5]; Initial,1.3 ± 0.11
same,AMY,[5]; Initial,361.25 ± 6.54
same,AST/ALT,[5]; Initial,2.16 ± 0.40
same,BUN/CRE,[5]; Initial,21.50 ± 2.60
same,GGT,[5]; Initial,1.33 ± 0.38
same,GLU,[5]; Initial,188.50 ± 31.74
same,T-CHOL,[5]; Initial,105.5 ± 19.94
same,TBA,[5]; Initial,79.85 ± 13.64
same,TG,[5]; Initial,291.35 ± 160.5
same,ALP,[5]; Initial,287.75 ± 31.54
same,ALT,[5]; Initial,68.75 ± 11.67
same,AST,[5]; Initial,135.75 ± 8.14
same,CK,[5]; Initial,641.75 ± 63.37
same,ALB,[5]; Initial,3.78 ± 0.08
same,GLO,[5]; Initial,2.95 ± 0.22
same,BUN,[5]; Initial,11.94 ± 1.46
same,CRE,[5]; Initial,0.56 ± 0.00
same,Ca,[5]; Initial,9.45 ± 0.16
same,Mg,[5]; Initial,2.18 ± 0.07
same,P,[5]; Initial,6.83 ± 0.64
same,TBIL,[5]; Initial,0.31 ± 0.05
same,UREA,[5]; Initial,25.65 ± 3.10
same,tCO2,[5]; Initial,15.25 ± 0.63
same,TP,[5]; Initial,6.73 ± 0.20
same,hepatotoxicity,[5]; subchronic treatment,without inducing hepatotoxicity
same,"blood glucose after a single administration, without prior fasting",[6],~ 200 mg/dL
